The values below come from PubChem BioAssay (NCI).

Some test systems named below: U251 CNS; SF-295 CNS; HT29 colon; IGROV1 ovarian; UO-31 renal; KM12 colon; LOX IMVI melanoma; CAKI-1 renal; SK-OV-3 ovarian; K-562 leukemia.
What all share (test): DTP human tumour cell line panel, 48 h

Each structure is given as a SMILES string.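 Grown in 96-well plates, cells were treated for 48 hours with each compound at five concentrations. Insufficient inhibition: endpoint recorded as highest concentration tested. The concentration for 50% growth inhibition is given as GI50. The concentration for full growth arrest is given as TGI.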 Bounds are passed on as bounds.

In the case of `COc1cc(C(=O)/C=C/c2c(-c3ccc(F)cc3)nc3sccn23)cc(OC)c1OC`, the GI50 (usually the concentration at which growth is held to half of that of the control) in the test with U251 CNS was 2.41 µM; in the test with SF-295 CNS it was 2.37 µM; with HT29 colon, 2.53 µM; in the test on IGROV1 ovarian, 3.49 µM; with UO-31 renal, 2.87 µM; in the test on KM12 colon, 2.24 µM. In addition, the GI50 in the test with LOX IMVI melanoma was 1.8 µM; in the test with CAKI-1 renal, 0.405 µM; in the test with SK-OV-3 ovarian, 2.68 µM; in the test with K-562 leukemia, 1.85 µM. Also, the TGI (commonly the concentration giving total growth inhibition) was 9.23 µM in the test on U251 CNS; 10.6 µM with SF-295 CNS; 6.11 µM in the test on HT29 colon; greater than 27 µM with UO-31 renal; 6.27 µM in the test on KM12 colon; 5.15 µM in the test on LOX IMVI melanoma. Also, the concentration for total growth inhibition (TGI) is greater than 30 µM with CAKI-1 renal, 11.9 µM in the test with SK-OV-3 ovarian and 6.64 µM with K-562 leukemia.

`O=C1C2Cc3ccccc3CN2C(=O)N1CN1CCN(CN2C(=O)C3Cc4ccccc4CN3C2=O)CC1` (centres undefined): the total growth inhibition concentration (TGI) in the test with U251 CNS, with SF-295 CNS, in the test on HT29 colon, in the test on IGROV1 ovarian, in the test on UO-31 renal and with KM12 colon was greater than 100 µM in each case. The TGI in the test on LOX IMVI melanoma, in the test on CAKI-1 renal, with SK-OV-3 ovarian and with K-562 leukemia was greater than 100 µM each time.
